Results from publication PMC10298626 (International Journal of Molecular Sciences, 2023).

Legend:
[1] = test system: TNF-α mRNA; assay: TNF-α mRNA expression (qRT-PCR) in LPS-stimulated RAW264.7 cells; type: cell-based, Mouse; settings: 20, 40, and 80 μM; 2 h pretreatment, LPS 500 ng/mL 6 h
Protocol: (§1) RAW264.7 cells were seeded into a 6-well plate (2 × 10^6 cells/well) and cultured for 24 h. The cells were treated with coumarin derivative 2 at 20, 40, and 80 μM and cultured for 2 h and with LPS (500 ng/mL) for 6 h.
(§2) The cells were washed with phosphate-buffered saline (PBS) and lysed with the RNeasy Mini kit (Qiagen, Hilden, Germany) for RNA isolation. RNA was converted to cDNA using the AccuPower reverse transcriptase Premix Kit (Bioneer, Daejeon, Republic of Korea). A Power SYBR Green PCR Master Mix (Applied Biosystems, Waltham, MN, USA) was used to perform polymerase chain reaction amplification. Amplification conditions were selected within the Quant 3 PCR system (Applied Biosystems). The data were normalized to the amount of glyceraldehyde 3-phosphate dehydrogenase.
(§3) Figure 3 Effects of coumarin derivative 2 on IL-6 and TNF-α production and mRNA expression in LPS-stimulated RAW264.7 cells. (a) Effect of coumarin derivative 2 on TNF-α and IL-6 production in RAW264.7 cells. The RAW264.7 cells (1 × 10^5/well, 96-well plates) were pretreated with coumarin derivative 2 (20, 40, and 80 μM) for 2 h and incubated with LPS (500 ng/mL) for 20 h. An ELISA kit was used to analyze cell supernatants for TNF-α and IL-6. […] IL-6 and TNF-α mRNA expression levels were measured via a real-time quantitative reverse transcription polymerase chain reaction.

[2] = test system: IL-6; assay: IL-6 production (ELISA) in LPS-stimulated RAW264.7 cells; type: cell-based, Mouse; settings: 20, 40, and 80 μM; 2 h pretreatment, LPS 500 ng/mL 20 h; concentration-dependent
Protocol: Macrophages stimulated by pathogens and cytokines are activated and play an important role in regulating the immune response, inflammatory response, and metabolism. LPS-activated RAW264.7 cells were treated with 20, 40, or 80 μM of coumarin derivative 2 and cultured for 24 h, and the levels of TNF-α and IL-6 in the culture medium were analyzed.
RAW264.7 cells were seeded into 96-well plates and cultured for 24 h. After 2 h of treatment with 20, 40, or 80 μM of coumarin compound derivative 2, the cells were incubated with LPS (500 ng/mL) for 20 h. ELISA kits (R & D Systems, Minneapolis, MN, USA) were used to collect and analyze the cell supernatants for TNF-α and IL-6.
as §3, with “IL-6. (b) Effect of coumarin derivative 2 on mRNA expression of IL-6 and TNF-α in RAW264.7 cells.” for “IL-6.”

[3] = in vitro; type: cell-based; settings: mouse, RAW264.7 cells, then LPS (500 ng/mL) 20 h, read-out: Cell viability, Average (%)
Protocol: To investigate the anti-inflammatory activity of coumarin derivatives, cell viability was analyzed by treating RAW264.7 cells with 23 types of coumarin derivatives at concentrations of 20, 40, and 80 μM for 2 h and with LPS for 20 h.
Mouse macrophage RAW264.7 cells were purchased from the Korea Cell Line Bank (Seoul, Republic of Korea) and cultured in Dulbecco’s Modified Eagle Medium (Corning, NY, USA) containing 10% fetal bovine serum and 1% penicillin/streptomycin at 37 °C and 5% CO2. The medium was changed every 2 days and subcultured when the cells grew > 80%.
EZ-Cytox cell viability assay kit (Dogen, Suwon, Republic of Korea) was used to measure cell viability according to the manufacturer’s instructions. RAW264.7 cells were seeded into a 96-well plate (1 × 10^5 cells/well) and treated with coumarin derivatives at concentrations of 20, 40, and 80 μM. After 2 h, the cells were treated with LPS (500 ng/mL) and cultured for 24 h in a 37 °C, 5% CO2 incubator. The culture supernatant was treated with 10% EZ-Cytox reagent, and a microplate reader was used to measure the absorbance at 450 nm.

[4] = test system: JNK; assay: LPS-induced phosphorylation of JNK (immunoblotting) in RAW264.7 cells; type: cell-based, Mouse; settings: 20, 40, and 80 μM pretreatment 2 h; LPS 500 ng/mL 30 min
Protocol: (§4) RAW264.7 cells were seeded into 6-well plates (2 × 10^6 cells/well) and incubated for 24 h. The cells were incubated with 20, 40, and 80 μM of coumarin derivative 2 for 2 h, and then LPS (500 ng/mL) was added for 30 min (for phosphorylation of ERK, JNK, p38, and p65) and 24 h (for protein expression of iNOS).
(§5) The cells were washed with PBS and lysed with radioimmunoprecipitation assay buffer containing 1 mM dithiothreitol (Wako, Tokyo, Japan), phosphatase inhibitor cocktail, 1 mM phenylmethylsulfonylfluoride, 1 mM sodium orthovanadate (Sigma), and 10 mM β-glycerophosphate (Sigma). The extracted proteins were centrifuged at 13,000× g rpm, separated via sodium dodecyl sulfate polyacrylamide gel electrophoresis, and transferred to polyvinylidene fluoride membranes. Nonspecific proteins were blocked by adding 5% skim milk. After blocking, primary antibodies were incubated overnight at 4 °C. After washing with the PBS-T buffer, the secondary antibodies were treated at room temperature for 2 h. For detection, the antibodies were developed with Super Signal® West Femto Substrate (ThermoFisher, Waltham, MN, USA) and analyzed on a Fusion Solo Chemiluminescence System (Vilber Lourmat, Paris, France) ECL detection system.
(§6) Figure 5 Inhibitory effects of coumarin derivative 2 on LPS-induced phosphorylation of MAPKs and NF-κB p65 in RAW264.7 cells. […]

[5] = test system: p38; assay: LPS-induced phosphorylation of p38 (immunoblotting) in RAW264.7 cells; type: cell-based, Mouse; settings: 20, 40, and 80 μM pretreatment 2 h; LPS 500 ng/mL 30 min
Protocol: as §4, §5, §6

[6] = test system: ERK; assay: LPS-induced phosphorylation of ERK (immunoblotting) in RAW264.7 cells; type: cell-based, Mouse; settings: 20, 40, and 80 μM pretreatment 2 h; LPS 500 ng/mL 30 min
Protocol: as §4, §5, §6

[7] = test system: IL-6 mRNA; assay: IL-6 mRNA expression (qRT-PCR) in LPS-stimulated RAW264.7 cells; type: cell-based, Mouse; settings: 20, 40, and 80 μM; 2 h pretreatment, LPS 500 ng/mL 6 h
Protocol: as §1, §2, §3

N#CC1=C(N)Oc2c(c(=O)oc3ccccc23)C1c1cccc(F)c1 (stereo not drawn) [Coumarin derivative 2]
TNF-α mRNA expression [1]: significantly suppressed | LPS-induced IL-6 level [2]: significantly reduced | viability at 22 h, 20 μM ([3]; 20 μM for 2 h): 106% | viability at 22 h, 40 μM ([3]; 40 μM for 2 h): 97.1% | viability at 22 h, 80 μM ([3]; 80 μM for 2 h): 101% | Phosphorylation of JNK [4]: inhibited | Phosphorylation of p38 [5]: inhibited | Phosphorylation of ERK [6]: inhibited | IL-6 mRNA expression [7]: significantly suppressed
